Like-named read-outs stand apart in the source and are kept apart here.
What was measured:
[1] = test system: NCI-H1975 (EGFR-L858R-T790M) cells; assay: Inhibitory activity on proliferation of NCI-H1975 (EGFR-L858R-T790M) cells (CTG, 72 h); type: cell-based; conditions: Homo sapiens
Outline: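 IC50 values come from S-shaped dose-survival fits of CTG signal expressed as % of vehicle. Compound exposure lasted 72 h at 37 °C with 0.1% DMSO; seeding was 3000 A431 cells/well in DMEM+10% FBS and 1000 NCI-H1975 cells/well in RPMI1640+10% FBS.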

A431 (EGFR-WT) cells = assay: Inhibitory activity on proliferation of A431 (EGFR-WT) cells (CTG, 72 h); type: cell-based; conditions: Homo sapiens, A-431
Experimental: NCI-H1975 (EGFR-L858R-T790M) and A431 (EGFR-WT) cells were purchased from ATCC and cultured in an incubator at 37° C. with 5% CO2, and the culture mediums were RPMI1640+10% FBS and DMEM+10% FBS, respectively. On the first day, NCI-H1975 (EGFR-L858R-T790M) and A431 (EGFR-WT) cells in the logarithmic phase were collected, and viable cells were counted using an automatic cell analyzer (countstar). The cell suspensions were adjusted with the culture mediums and plated on a 96-well cell culture plate at 1000 cells/well for NCI-H1975 (EGFR-L858R-T790M) cells and at 3000 cells/well for A431 cells. The next day, the culture mediums were aspirated, and 90 μL of fresh culture mediums and 10 μL of the compounds at different concentrations were added to each well, wherein the final concentration of DMSO in each well was 0.1%. The plate was cultured in the incubator at 37° C. with 5% CO2 for 72 hours. After 72 hours of drug treatment, 50 μL of CTG solution (promega, G7572), which was already pre-melted and equilibrated to room temperature, was added to each well, and the mixtures were uniformly mixed for 2 min using a microplate shaker. The plate was placed at room temperature for 10 min, and then […] signal values were measured using a microplate reader (PHERAstar FSX).
Surviving cells % was calculated based on Vsample/Vvehicle control×100%, wherein Vsample was the readout of the drug-treated group, and Vvehicle control was the average value of the vehicle control group. Using the origin 9.2 software and nonlinear regression model, S-shaped dose-survival curves were plotted, and IC50 values were calculated.

[2] = read-out: IC50 (value in brackets)

Row | IC50 ([1]; read-out: IC50 (class symbol)) [nM] | IC50 [1, 2] [nM] | IC50 (A431 (EGFR-WT) cells) [nM] | Compound
1 | < 100 | 21 | ≥ 10000 | COc1cc(N2CCC(N3CCN(CC4CCN(c5ccc6c(c5)C(=O)N(C5CCC(=O)NC5=O)C6=O)CC4)CC3)CC2)c(-c2cnn(C)c2)cc1Nc1ncc(Cl)c(Nc2ccc3nccnc3c2P(C)(C)=O)n1 (stereo not drawn) [Compound 4, 5-(4-((4-(1-(4-((5-chloro-4-((5-(dimethylphosphoryl)quinoxalin-6-yl)amino)pyrimidin-2-yl)amino)-5-methoxy-2-(1-methyl-1H-pyrazol-4-yl)phenyl)piperidin-4-yl)piperazin-1-yl)methyl)piperidin-1-yl)-2-(2,6-dioxopiperidin-3-yl)isoindoline-1,3-dione]
2 | < 100 | 29 | ≥ 10000 | COc1cc(N2CCN(C[C@H]3CCN(c4ccc5c(c4)C(=O)N(C4CCC(=O)NC4=O)C5=O)C3)CC2)c(-c2cnn(C)c2)cc1Nc1ncc(Cl)c(Nc2ccc(C3CC3)cc2P(C)(C)=O)n1 (stereo partly drawn) [Compound 119, 5-((R)-3-((4-(4-((5-chloro-4-((4-cyclopropyl-2-(dimethylphosphoryl)phenyl)amino)pyrimidin-2-yl)amino)-5-methoxy-2-(1-methyl-1H-pyrazol-4-yl)phenyl)piperazin-1-yl)methyl)pyrrolidin-1-yl)-2-(2,6-dioxopiperidin-3-yl)isoindoline-1,3-dione]
3 | < 100 | 79 | ≥ 10000 | COc1cc(N2CCN(C3CN(c4ccc5c(c4)C(=O)N(C4CCC(=O)NC4=O)C5=O)C3)CC2)c(-c2cnn(C)c2)cc1Nc1ncc(Cl)c(Nc2ccc(C3CC3)cc2P(C)(C)=O)n1 (stereo not drawn) [Compound 148, 5-(3-(4-(4-((5-chloro-4-((4-cyclopropyl-2-(dimethylphosphoryl)phenyl)amino)pyrimidin-2-yl)amino)-5-methoxy-2-(1-methyl-1H-pyrazol-4-yl)phenyl)piperazin-1-yl)azetidin-1-yl)-2-(2,6-dioxopiperidin-3-yl)isoindoline-1,3-dione]
4 | 100 to 500 | 115 | ≥ 10000 | COc1cc(N2CCN(c3ccc4c(c3)C(=O)N(C3CCC(=O)NC3=O)C4=O)CC2)c(-c2cnn(C)c2)cc1Nc1ncc(Br)c(Nc2ccc(C3CC3)cc2P(C)(C)=O)n1 (stereo not drawn) [Compound 166, 5-(4-(4-((5-bromo-4-((4-cyclopropyl-2-(dimethylphosphoryl)phenyl)amino)pyrimidin-2-yl)amino)-5-methoxy-2-(1-methyl-1H-pyrazol-4-yl)phenyl)piperazin-1-yl)-2-(2,6-dioxopiperidin-3-yl)isoindoline-1,3-dione]
5 | < 100 | 90 | ≥ 10000 | COc1cc(N2CCC3(CCC(N4CCN(c5ccc6c(c5)C(=O)N(C5CCC(=O)NC5=O)C6=O)CC4)CC3)CC2)c(-c2cnn(C)c2)cc1Nc1ncc(Br)c(Nc2ccc(-c3ccccc3)cc2P(C)(C)=O)n1 (stereo not drawn) [Compound 82, 5-(4-(3-(4-((5-bromo-4-((3-(dimethylphosphoryl)-[1,1′-biphenyl]-4-yl)amino)pyrimidin-2-yl)amino)-5-methoxy-2-(1-methyl-1H-pyrazol-4-yl)phenyl)-3-azaspiro[5.5]undecan-9-yl)piperazin-1-yl)-2-(2,6-dioxopiperidin-3-yl)isoindoline-1,3-dione]
6 | < 100 | 71 | ≥ 10000 | COc1cc(N2CCN(C3CCN(CC4CCN(c5cc6c(cc5F)C(=O)N(C5CCC(=O)NC5=O)C6=O)CC4)CC3)CC2)c(-c2cnn(C)c2)cc1Nc1ncc(Br)c(Nc2ccc(-c3ccccc3)cc2P(C)(C)=O)n1 (stereo not drawn) [Compound 46, 5-(4-((4-(4-(4-((5-bromo-4-((3-(dimethylphosphoryl)-[1,1′-biphenyl]-4-yl)amino)pyrimidin-2-yl)amino)-5-methoxy-2-(1-methyl-1H-pyrazol-4-yl)phenyl)piperazin-1-yl)piperidin-1-yl)methyl)piperidin-1-yl)-2-(2,6-dioxopiperidin-3-yl)-6-fluoroisoindoline-1,3-dione]
7 | < 100 | 23 | ≥ 10000 | COc1cc(N2CCN(CC3CCN(c4ccc5c(c4)C(=O)N(C4CCC(=O)NC4=O)C5=O)CC3)CC2)c(-c2cnn(C)c2)cc1Nc1ncc(Br)c(Nc2ccc(C3CC3)cc2P(C)(C)=O)n1 (stereo not drawn) [Compound 125, 5-(4-((4-(4-((5-bromo-4-((4-cyclopropyl-2-(dimethylphosphoryl)phenyl)amino)pyrimidin-2-yl)amino)-5-methoxy-2-(1-methyl-1H-pyrazol-4-yl)phenyl)piperazin-1-yl)methyl)piperidin-1-yl)-2-(2,6-dioxopiperidin-3-yl)isoindoline-1,3-dione]
8 | < 100 | 49 | ≥ 10000 | COc1cc(N2CCC(C3CCN(C4CC5(CCN(c6ccc7c(c6)C(=O)N(C6CCC(=O)NC6=O)C7=O)CC5)C4)CC3)CC2)c(-c2cnn(C)c2)cc1Nc1ncc(Cl)c(Nc2ccc3nccnc3c2P(C)(C)=O)n1 (stereo not drawn) [Trifluoroacetate of compound 14, 5-(2-(1′-(4-((5-chloro-4-((5-(dimethylphosphoryl)quinoxalin-6-yl)amino)pyrimidin-2-yl)amino)-5-methoxy-2-(1-methyl-1H-pyrazol-4-yl)phenyl)-[4,4′-bipiperidin]-1-yl)-7-azaspiro[3.5]nonan-7-yl)-2-(2,6-dioxopiperidin-3-yl)isoindoline-1,3-dione]
9 | < 100 | 51 | ≥ 10000 | COc1cc(N2CCC(CN3CC4CN(c5ccc6c(c5)C(=O)N(C5CCC(=O)NC5=O)C6=O)CC4C3)CC2)c(-c2cnn(C)c2)cc1Nc1ncc(Br)c(Nc2ccc(-c3ccccc3)cc2P(C)(C)=O)n1 (stereo not drawn) [Compound 78, 5-(5-((1-(4-((5-bromo-4-((3-(dimethylphosphoryl)-[1,1′-biphenyl]-4-yl)amino)pyrimidin-2-yl)amino)-5-methoxy-2-(1-methyl-1H-pyrazol-4-yl)phenyl)piperidin-4-yl)methyl)hexahydropyrrolo[3,4-c]pyrrol-2(1H)-yl)-2-(2,6-dioxopiperidin-3-yl)isoindoline-1,3-dione]
10 | < 100 | 99 | ≥ 10000 | COc1cc(N2CCC(CN3CCN(c4ccc(C(=O)NC5CCC(=O)NC5=O)nc4)CC3)CC2)c(-c2cnn(C)c2)cc1Nc1ncc(Cl)c(Nc2ccc(-c3ccccc3)cc2P(C)(C)=O)n1 (stereo not drawn) [Compound 66, 5-(4-((1-(4-((5-chloro-4-((3-(dimethylphosphoryl)-[1,1′-biphenyl]-4-yl)amino)pyrimidin-2-yl)amino)-5-methoxy-2-(1-methyl-1H-pyrazol-4-yl)phenyl)piperidin-4-yl)methyl)piperazin-1-yl)-N-(2,6-dioxopiperidin-3-yl)picolinamide]
11 | < 100 | 43 | ≥ 10000 | COc1cc(N2CCC(CN3CCCC4(CCN(c5ccc6c(c5)C(=O)N(C5CCC(=O)NC5=O)C6=O)CC4)C3)CC2)c(-c2cnn(C)c2)cc1Nc1ncc(Cl)c(Nc2ccc3nccnc3c2P(C)(C)=O)n1 (stereo not drawn) [Compound 1, 5-(2-((1-(4-((5-chloro-4-((5-(dimethylphosphoryl)quinoxalin-6-yl)amino)pyrimidin-2-yl)amino)-5-methoxy-2-(1-methyl-1H-pyrazol-4-yl)phenyl)piperidin-4-yl)methyl)-2,9-diazaspiro[5.5]undecan-9-yl)-2-(2,6-dioxopiperidin-3-yl)isoindoline-1,3-dione]
12 | 100 to 500 | 209 | ≥ 10000 | CCn1cc(-c2cc(Nc3ncc(Br)c(Nc4ccc(-c5ccccc5)cc4P(C)(C)=O)n3)c(OC)cc2N2CCC(CN3CCN(c4ccc5c(c4)C(=O)N(C4CCC(=O)NC4=O)C5=O)CC3)CC2)cn1 (stereo not drawn) [Compound 111, 5-(4-((1-(4-((5-bromo-4-((3-(dimethylphosphoryl)-[1,1′-biphenyl]-4-yl)amino)pyrimidin-2-yl)amino)-2-(1-ethyl-1H-pyrazol-4-yl)-5-methoxyphenyl)piperidin-4-yl)methyl)piperazin-1-yl)-2-(2,6-dioxopiperidin-3-yl)isoindoline-1,3-dione]
13 | < 100 | 47 | ≥ 10000 | COc1cc(N2CCC(CN3CCN(c4ccc5c(c4)C(=O)N([C@H]4CCC(=O)NC4=O)C5=O)CC3)CC2)c(-c2cnn(C)c2)cc1Nc1ncc(Br)c(Nc2ccc(C3CC3)cc2P(C)(C)=O)n1 [Compound 170]
14 | 100 to 500 | 114 | ≥ 10000 | COc1cc(N2CCC(N3CCN(CC4CCN(c5ccc6c(c5)C(=O)N(C5CCC(=O)NC5=O)C6=O)C4)CC3)CC2)c(C2CC2)cc1Nc1ncc(Br)c(Nc2ccc3nccnc3c2P(C)(C)=O)n1 (stereo not drawn) [Compound 35, 5-(3-((4-(1-(4-((5-bromo-4-((5-(dimethylphosphoryl)quinoxalin-6-yl)amino)pyrimidin-2-yl)amino)-2-cyclopropyl-5-methoxyphenyl)piperidin-4-yl)piperazin-1-yl)methyl)pyrrolidin-1-yl)-2-(2,6-dioxopiperidin-3-yl)isoindoline-1,3-dione]

Source: patent publication US20240269298A1, “PHOSPHONYL DERIVATIVE, AND COMPOSITION AND PHARMACEUTICAL APPLICATION THEREOF” (XIZANG HAISCO PHARMACEUTICAL CO., LTD., priority 2021, published 2024)
